Measurements taken from ChEMBL document CHEMBL3885861, “Open TG-GATES”.

Organism: Rattus norvegicus
Experiment: Open TG-GATES - Regimen: Daily Repeat
Format: toxicity, organism-based, Sprague-Dawley
Set-up: regimen Daily Repeat, gender Male, age 6 weeks
Conditions: in vivo, po, route gavage; for Bas / Eos / Fbg / MCHC / Neu / Plat / RBC / Ret / WBC / Lym / MCH / MCV / Mono: tissue Blood; for KIDNEY_L / KIDNEY_R / KIDNEY_TOTAL: tissue Kidney; for LIVER: tissue Liver
[1] = 0 mg/kg, 72 h, dose level Control, time 3 day
[2] = 0 mg/kg, 72 h, tissue Plasma, dose level Control, time 3 day
[3] = 0 mg/kg, […], dose level Control, time 14 day
[4] = 0 mg/kg, […], dose level Control, time 28 day
[5] = 0 mg/kg, […], tissue Plasma, dose level Control, time 14 day
[6] = 0 mg/kg, […], tissue Plasma, dose level Control, time 28 day
[7] = 1 mg/kg, 72 h, dose level Low, time 3 day
[8] = 1 mg/kg, 72 h, tissue Plasma, dose level Low, time 3 day
[9] = 1 mg/kg, […], dose level Low, time 14 day
[10] = 1 mg/kg, […], dose level Low, time 28 day
[11] = 1 mg/kg, […], tissue Plasma, dose level Low, time 14 day
[12] = 1 mg/kg, […], tissue Plasma, dose level Low, time 28 day

Structure (SMILES): O=C(O)Cc1ccccc1Nc1c(Cl)cccc1Cl [DICLOFENAC]
- TERMINAL_BW [1]: 237.4 g
- Bas [1]: 0%
- Eos [1]: 1%
- Fbg [1]: 222.6 mg/dL
- MCHC [1]: 34.5%
- Neu [1]: 21%
- Plat [1]: 120.1 x10_4/uL
- RBC [1]: 626.6 x10_4/ul
- Ret [1]: 4.9%
- WBC [1]: 105.4 x10_2/uL
- KIDNEY_L [1]: 1 g
- KIDNEY_R [1]: 1 g
- KIDNEY_TOTAL [1]: 2 g
- ALP [2]: 974.8 IU/L
- AST [2]: 65 IU/L
- CRE [2]: 0.4 mg/dL
- DBIL [2]: 0.1 mg/dL
- GLC [2]: 193 mg/dL
- IP [2]: 7.8 mg/dL
- LDH [2]: 163.8 IU/L
- PL [2]: 160.6 mg/dL
- TBIL [2]: 0.2 mg/dL
- TC [2]: 74 mg/dL
- TG [2]: 141 mg/dL
- TP [2]: 5.6 g/dL
- gamma-GTP [2]: 1.2 IU/L
- TERMINAL_BW [3]: 317.2 g
- TERMINAL_BW [4]: 396.3 g
- Bas [3]: 0%
- Eos [3]: 0.8%
- Fbg [3]: 221.6 mg/dL
- Lym [3]: 80.8%
- MCH [3]: 21.5 pg
- MCHC [3]: 35.9%
- MCV [3]: 59.9 fL
- Mono [3]: 2%
- Plat [3]: 106.7 x10_4/uL
- Ret [3]: 4%
- WBC [3]: 92.1 x10_2/uL
- Bas [4]: 0%
- Fbg [4]: 219.8 mg/dL
- Lym [4]: 84.2%
- MCH [4]: 20.1 pg
- MCHC [4]: 36.1%
- MCV [4]: 55.9 fL
- Neu [4]: 11.4%
- Plat [4]: 102.6 x10_4/uL
- RBC [4]: 801.6 x10_4/ul
- Ret [4]: 2.3%
- WBC [4]: 127.9 x10_2/uL
- KIDNEY_L [3]: 1.3 g
- KIDNEY_R [3]: 1.3 g
- KIDNEY_TOTAL [3]: 2.6 g
- KIDNEY_L [4]: 1.4 g
- KIDNEY_R [4]: 1.4 g
- KIDNEY_TOTAL [4]: 2.8 g
- LIVER [4]: 15.7 g
- ALP [5]: 720.8 IU/L
- ALT [5]: 31.2 IU/L
- CRE [5]: 0.4 mg/dL
- DBIL [5]: 0.1 mg/dL
- GLC [5]: 220.2 mg/dL
- IP [5]: 7.2 mg/dL
- K [5]: 3.7 meq/L
- LDH [5]: 170 IU/L
- Na [5]: 140.2 meq/L
- PL [5]: 143.8 mg/dL
- RALB [5]: 3.4 g/dL
- TBIL [5]: 0.2 mg/dL
- TC [5]: 64.2 mg/dL
- TP [5]: 6 g/dL
- gamma-GTP [5]: 1 IU/L
- ALP [6]: 600.6 IU/L
- AST [6]: 57 IU/L
- CRE [6]: 0.5 mg/dL
- Ca [6]: 10.3 mg/dL
- Cl [6]: 101.8 meq/L
- DBIL [6]: 0.1 mg/dL
- GLC [6]: 240.8 mg/dL
- IP [6]: 6.5 mg/dL
- K [6]: 3.5 meq/L
- LDH [6]: 146.4 IU/L
- Na [6]: 140.4 meq/L
- PL [6]: 151.4 mg/dL
- RALB [6]: 3.6 g/dL
- TBIL [6]: 0.2 mg/dL
- TC [6]: 68.8 mg/dL
- TG [6]: 145.6 mg/dL
- TP [6]: 6.3 g/dL
- gamma-GTP [6]: 0.8 IU/L
- TERMINAL_BW [7]: 235.7 g
- Bas [7]: 0%
- Eos [7]: 1%
- Fbg [7]: 217.6 mg/dL
- Mono [7]: 3.4%
- Plat [7]: 125.8 x10_4/uL
- RBC [7]: 633.8 x10_4/ul
- Ret [7]: 5%
- WBC [7]: 89.1 x10_2/uL
- KIDNEY_L [7]: 1 g
- KIDNEY_R [7]: 1 g
- KIDNEY_TOTAL [7]: 2.1 g
- LIVER [7]: 11 g
- ALP [8]: 1075.6 IU/L
- AST [8]: 66 IU/L
- CRE [8]: 0.4 mg/dL
- DBIL [8]: 0.1 mg/dL
- GLC [8]: 190 mg/dL
- LDH [8]: 173.4 IU/L
- PL [8]: 164.2 mg/dL
- TBIL [8]: 0.2 mg/dL
- TC [8]: 75.8 mg/dL
- TP [8]: 5.7 g/dL
- gamma-GTP [8]: 1 IU/L
- TERMINAL_BW [9]: 319.9 g
- TERMINAL_BW [10]: 385.2 g
- Bas [9]: 0%
- Eos [9]: 1%
- Fbg [9]: 224.4 mg/dL
- Lym [9]: 78.4%
- MCHC [9]: 35.7%
- Plat [9]: 114.5 x10_4/uL
- RBC [9]: 699 x10_4/ul
- Ret [9]: 3.8%
- WBC [9]: 100.3 x10_2/uL
- Bas [10]: 0%
- Eos [10]: 1.4%
- Lym [10]: 80%
- MCH [10]: 20.1 pg
- MCHC [10]: 36.1%
- MCV [10]: 55.6 fL
- Neu [10]: 15.4%
- Plat [10]: 108.4 x10_4/uL
- RBC [10]: 796.2 x10_4/ul
- Ret [10]: 1.8%
- WBC [10]: 95.4 x10_2/uL
- KIDNEY_L [9]: 1.3 g
- KIDNEY_R [9]: 1.3 g
- KIDNEY_TOTAL [9]: 2.6 g
- KIDNEY_L [10]: 1.4 g
- KIDNEY_R [10]: 1.4 g
- KIDNEY_TOTAL [10]: 2.8 g
- LIVER [10]: 14.8 g
- ALP [11]: 890.6 IU/L
- ALT [11]: 35.2 IU/L
- AST [11]: 66.2 IU/L
- CRE [11]: 0.4 mg/dL
- Ca [11]: 10.6 mg/dL
- DBIL [11]: 0.1 mg/dL
- GLC [11]: 218.4 mg/dL
- IP [11]: 7.8 mg/dL
- K [11]: 3.7 meq/L
- LDH [11]: 192.8 IU/L
- Na [11]: 140.8 meq/L
- PL [11]: 173.4 mg/dL
- RALB [11]: 3.4 g/dL
- TBIL [11]: 0.2 mg/dL
- TC [11]: 81.4 mg/dL
- TG [11]: 151.6 mg/dL
- TP [11]: 5.9 g/dL
- gamma-GTP [11]: 0.4 IU/L
- ALP [12]: 610.6 IU/L
- ALT [12]: 29.4 IU/L
- AST [12]: 61.4 IU/L
- CRE [12]: 0.4 mg/dL
- DBIL [12]: 0.088 mg/dL
- GLC [12]: 215.8 mg/dL
- IP [12]: 6.7 mg/dL
- K [12]: 3.5 meq/L
- LDH [12]: 165.4 IU/L
- PL [12]: 141.4 mg/dL
- RALB [12]: 3.4 g/dL
- TBIL [12]: 0.2 mg/dL
- TP [12]: 6.2 g/dL
- gamma-GTP [12]: 0.2 IU/L
